Test results reported in patent US9675624B2, “Combination of levocabastine and fluticasone furoate for the treatment of inflammatory and/or allergic conditions” (Glaxo Group Limited, priority 2012, dated 2017).

Experiment: Competitive ripening experiments on levocabastine free base forms
Assay type: physicochemical
Source text: It has been observed that the levocabastine HCl salt converts during the preparation of formulations of the invention (e.g. as described in Examples 1 and 2) to levocabastine free base. Levocabastine free base Forms 1 and 2 were observed during the form screen of the HCl salt and during pH solubility studies.

SMILES: C[C@@H]1CN(C2CCC(C#N)(c3ccc(F)cc3)CC2)CC[C@]1(C(=O)O)c1ccccc1 (stereo partly drawn) [levocabastine Form 1, (3S,4R)-1-[4-cyano-4-(4-fluorophenyl)cyclohexyl]-3-methyl-4-phenylpiperidine-4-carboxylic acid]
- relative stability of polymorphic forms of the free base: most stable form
